Nine compounds from PubChem BioAssay (NCI) can be followed below.

Some test systems named below: SK-OV-3 ovarian; DU-145 prostate; OVCAR-3 ovarian; HT29 colon; NCI-H23 lung; RXF 393 renal; SK-MEL-2 melanoma; RPMI-8226 leukemia; UACC-62 melanoma; HCT-15 colon.
What all share (test): inhibition of tumour cell growth, NCI panel, 48 h

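Step 1: Grow cells in 96-well plates. Step 2: Expose to compound for 48 hours at 5 concentrations. Step 3: Interpolate endpoints linearly; if unreached, use highest concentration. Here, GI50 denotes the concentration required for 50% inhibition of growth. TGI: concentration producing complete growth inhibition.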

On to `Nc1ccccc1-c1ccc([N+](=O)[O-])cc1`, for which the GI50 was 68.3 µM in the assay with SK-OV-3 ovarian; 73.1 µM with DU-145 prostate; 13.4 µM in the assay with OVCAR-3 ovarian; 54.4 µM in the assay on HT29 colon; 26.6 µM in the assay on NCI-H23 lung; 55.9 µM in the assay on RXF 393 renal. Moreover, the GI50 in the assay with SK-MEL-2 melanoma is more than 100 µM; in the assay on RPMI-8226 leukemia it was 4.95 µM; in the assay with UACC-62 melanoma it was 0.756 µM; with HCT-15 colon, 14.3 µM. For the same compound, the TGI in the assay with SK-OV-3 ovarian was more than 100 µM; in the assay on DU-145 prostate it was more than 100 µM; with OVCAR-3 ovarian it was 76.9 µM; in the assay with HT29 colon, more than 100 µM; in the assay on NCI-H23 lung, more than 100 µM; with RXF 393 renal, more than 100 µM. Moreover, the TGI was more than 100 µM with SK-MEL-2 melanoma, more than 100 µM in the assay on RPMI-8226 leukemia, 19.4 µM with UACC-62 melanoma and more than 100 µM in the assay with HCT-15 colon.
Turning to `CC(C)c1c(C(=O)Nc2ccccc2)c(-c2ccccc2)c(-c2ccc(F)cc2)n1CC[C@@H]1CC=CC(=O)O1`, the GI50 in the assay with SK-OV-3 ovarian was 3.39 µM; in the assay on DU-145 prostate, 1.84 µM; in the assay on OVCAR-3 ovarian, 1.8 µM; in the assay on HT29 colon, 1.62 µM; with NCI-H23 lung it was 2.03 µM; with RXF 393 renal, 1.62 µM. The GI50 was 1.87 µM in the assay on SK-MEL-2 melanoma, 0.285 µM with RPMI-8226 leukemia, 1.7 µM in the assay on UACC-62 melanoma and 1.88 µM in the assay on HCT-15 colon. In addition, the TGI came out at 11.9 µM with SK-OV-3 ovarian; 3.27 µM in the assay with DU-145 prostate; 3.31 µM in the assay on OVCAR-3 ovarian; 3.66 µM in the assay on HT29 colon; 4.04 µM with NCI-H23 lung; 3.13 µM with RXF 393 renal. Further, the TGI with SK-MEL-2 melanoma was 3.43 µM; in the assay with RPMI-8226 leukemia, 1.17 µM; with UACC-62 melanoma it was 3.37 µM; with HCT-15 colon, 3.85 µM.
As to `CCN1/C(=C/C=C/c2n(-c3ccccc3)c3ccc(-c4nc5ccccc5s4)cc3[n+]2CC)N(c2ccccc2)c2ccc(-c3nc4ccccc4s3)cc21`, the GI50 in the assay with DU-145 prostate is 0.374 µM; in the assay with OVCAR-3 ovarian it was 1.01 µM; in the assay on HT29 colon, 0.333 µM; in the assay on NCI-H23 lung it was 0.533 µM; with RXF 393 renal it was 0.563 µM; in the assay with SK-MEL-2 melanoma it was 0.89 µM. The GI50 is 0.303 µM in the assay with RPMI-8226 leukemia, 0.97 µM in the assay with UACC-62 melanoma and 1 µM in the assay on HCT-15 colon. Moreover, the TGI in the assay on DU-145 prostate was 2.49 µM; in the assay on OVCAR-3 ovarian, 10.3 µM; with HT29 colon, more than 50 µM; with NCI-H23 lung it was 5.08 µM; in the assay on RXF 393 renal, 7.37 µM; in the assay with SK-MEL-2 melanoma, 2.85 µM. Also, the TGI with RPMI-8226 leukemia, in the assay with UACC-62 melanoma and in the assay with HCT-15 colon was more than 50 µM throughout.
In the case of `CCOc1ccccc1NC(=O)c1cc2ccccc2cc1O`, the GI50 was 3.71 µM in the assay on DU-145 prostate; 3.16 µM with OVCAR-3 ovarian; 8.35 µM in the assay with HT29 colon; 2.59 µM in the assay with NCI-H23 lung; 2.63 µM in the assay with RXF 393 renal; 2.42 µM in the assay with SK-MEL-2 melanoma. For the same compound, the GI50 with RPMI-8226 leukemia was 2.04 µM; with UACC-62 melanoma, 2.18 µM; in the assay on HCT-15 colon, 3.27 µM. For the same compound, the TGI was 14.5 µM in the assay on DU-145 prostate; 8.98 µM with OVCAR-3 ovarian; 25.4 µM with HT29 colon; 9.45 µM in the assay with NCI-H23 lung; 7.62 µM in the assay with RXF 393 renal; 5.47 µM with SK-MEL-2 melanoma. Also, the values for the TGI with RPMI-8226 leukemia, in the assay with UACC-62 melanoma and in the assay on HCT-15 colon were 6.56 µM, 9.55 µM and 15.6 µM, respectively.
In the case of `CCOC(=O)/C(=N\OC)C(O)C(F)(F)F` (stereo not drawn), the TGI in the assay on SK-OV-3 ovarian, with DU-145 prostate, with HT29 colon, with NCI-H23 lung, in the assay with RXF 393 renal and in the assay on SK-MEL-2 melanoma was more than 100 µM each time. Further, the TGI in the assay on RPMI-8226 leukemia, with UACC-62 melanoma and in the assay on HCT-15 colon was more than 100 µM each time.
With `COC(=O)C1=C(C)NC(C)=C(C(=O)OC)C1/C=C(\Cl)c1ccc(Cl)c(Cl)c1`, the GI50 in the assay on SK-OV-3 ovarian was 21.1 µM; with DU-145 prostate it was 16.5 µM; in the assay on OVCAR-3 ovarian, 12.8 µM; in the assay on HT29 colon it was 4.51 µM; in the assay on NCI-H23 lung, 16.8 µM; in the assay with RXF 393 renal, 13.4 µM. For the same compound, the GI50 in the assay with RPMI-8226 leukemia is 1.8 µM; in the assay on UACC-62 melanoma, 6.42 µM; in the assay with HCT-15 colon, 12.3 µM. Moreover, the TGI worked out at 49 µM with SK-OV-3 ovarian; 32 µM in the assay with DU-145 prostate; 26.3 µM in the assay on OVCAR-3 ovarian; 18.5 µM with HT29 colon; 31 µM in the assay on NCI-H23 lung; 27.2 µM with RXF 393 renal. For the same compound, the TGI in the assay with RPMI-8226 leukemia was found to be 13.7 µM; with UACC-62 melanoma, 20.3 µM; in the assay on HCT-15 colon, 26.9 µM.
In the case of `Cc1cc(Cl)cc2c(N=Nc3ccccc3[N+](=O)[O-])c(O)[nH]c12`, the TGI with SK-OV-3 ovarian, in the assay with DU-145 prostate, in the assay with OVCAR-3 ovarian, in the assay on NCI-H23 lung, in the assay with RXF 393 renal and with SK-MEL-2 melanoma was more than 100 µM each time. The TGI in the assay with RPMI-8226 leukemia, in the assay with UACC-62 melanoma and in the assay with HCT-15 colon was more than 100 µM throughout.
Regarding `N=C(N)c1ccc(OCCOCCOc2ccc(C(=N)N)cc2)cc1`, the GI50 with DU-145 prostate is 96.1 µM; in the assay with OVCAR-3 ovarian, more than 100 µM; in the assay with HT29 colon, 78.3 µM; in the assay on NCI-H23 lung it was 78 µM; in the assay on RXF 393 renal it was more than 100 µM; in the assay on SK-MEL-2 melanoma it was 38.2 µM. In addition, the GI50 was 68.5 µM with RPMI-8226 leukemia, more than 100 µM with UACC-62 melanoma and 84.1 µM in the assay with HCT-15 colon. Also, the TGI in the assay with DU-145 prostate, in the assay on OVCAR-3 ovarian, in the assay with HT29 colon, with NCI-H23 lung, in the assay with RXF 393 renal and with SK-MEL-2 melanoma was more than 100 µM in each case. The TGI in the assay with RPMI-8226 leukemia, with UACC-62 melanoma and in the assay with HCT-15 colon was more than 100 µM throughout.
For `Cc1cc(NCCCNc2ccnc3cc(Cl)ccc23)nc(N2CCN(C)CC2)n1`, the GI50 in the assay on SK-OV-3 ovarian was 7.66 µM; in the assay on DU-145 prostate, 5.5 µM; in the assay with OVCAR-3 ovarian, 5.79 µM; in the assay with HT29 colon, 1.33 µM; in the assay with NCI-H23 lung it was 5.9 µM; in the assay with RXF 393 renal, 1.35 µM. Also, the GI50 in the assay with RPMI-8226 leukemia was 2.56 µM; in the assay with UACC-62 melanoma it was 2.05 µM; with HCT-15 colon, 3.29 µM. The TGI worked out at 45.6 µM in the assay with SK-OV-3 ovarian; 17.9 µM with DU-145 prostate; 25.7 µM in the assay on OVCAR-3 ovarian; 13.5 µM in the assay on HT29 colon; 28.6 µM with NCI-H23 lung; 4.99 µM with RXF 393 renal. Moreover, the values for the TGI with RPMI-8226 leukemia, with UACC-62 melanoma and in the assay with HCT-15 colon were 7.45 µM, 4.55 µM and 22.8 µM, respectively.
